Results: US20060020042A1, “Memantine for the treatment of mild and mild to moderate Alzheimer's disease” (Forest Laboratories, Inc., priority 2004, published 2006)

Key:
[1] = system: outpatients with mild-to-moderate Alzheimer's disease; test: ADAS-cog in randomized, double-blind, placebo-controlled study; type: in vivo, human; settings: for ADAS-cog Non-Responder, number of patients / ADAS-cog Responder (change from baseline <= -4), number of patients / ADAS-cog Difference (memantine minus placebo, LS mean): Week 24, ITT; for ADAS-cog Difference (memantine minus placebo, LS mean): 20 mg/day
Source text: The present invention is based on results from a randomized, double-blind, placebo-controlled, multi-center, parallel-group study comparing memantine to placebo in outpatients diagnosed with probable AD according to […] criteria. Severity of mild to moderate was established using the Mini-Mental State Examination (MMSE) score (≧10 and ≦22; 0 is the lowest score and 30 is the highest score). In the study of the present invention, there were approximately 400 patients enrolled across 42 centers. Evaluation of primary efficacy was achieved by Alzheimer's Disease Assessment Scale-cognitive subscale (ADAS-cog) and the Clinician's Interview-Based Impression of Change including caregiver information (CIBIC-plus). Secondary efficacy was determined using Alzheimer's disease Cooperative Study-Activities of Daily Living (ADCS-ADL) and Neuropsychiatric Inventory (NPI) criteria. The ADAS-cog comprises an 11-item scale that is used to assess the severity of selected areas of cognitive impairment (memory, language, orientation, reason and praxis). Scores range from 0 to 70 with lower scores indicating lesser severity and a score of 70 representing the worst cognitive impairment. Its use in assessing and following changes in patients with mild to moderate Alzheimer's disease has been extensively validated. The ADAS-cog was administered at each clinic visit starting with the Baseline visit and at the end of weeks 4, 8, 12, 18 and 24 (or upon early termination). The study consisted of 1-2 weeks of single-blind placebo treatment followed by 24 weeks of double-blind treatment. Results were evaluated over seven clinical visits; at initial screening, baseline, and the end of weeks 4, 8, 12, 18 and 24. The population of patients who received at least one dose of double-blind memantine, and completed at least one post-baseline efficacy evaluation of either the ADAS-cog or the CIBIC-plus is designated the “intent-to-treat” (ITT) population. The population of randomized patients who received at least one dose of double-blind study medication is designated the “safety population”. The randomized population designates all patients randomized into the study. This study was conducted as a fixed-dose study. All patients assigned to the memantine group received an initial dose of 5 mg per day; the dose was titrated in 5 mg weekly increments to a final dose of 20 mg/day (administered as two 5 mg tablets twice a day). Study drug was provided as blister packs containing masked study medication such that placebo and memantine tablets were visually identical, and all patients received four tablets of study medication daily (in combinations of memantine 5 mg tablets and matching placebo tablets). Transient dose adjustments were permitted between weeks 3 and 8 for patients experiencing dose-limiting adverse events. However, all patients were required to receive the target dose of 20 mg/day by the end of week 8. Patients not able to tolerate the target dose by week 8 were discontinued from the study. Statistical analysis. For primary efficacy measurements, (e.g., change from Baseline (visit 2) to Week 24 in the total ADAS-cog scores from the ITT population) the comparison between memantine and placebo were performed using two-way analysis of covariance (ANCOVA) with treatment group and center as the two factors, and the baseline scores as covariate. Both the Last Observation Carried Forward (LOCF) imputation approach and the Observed Cases (OC) approach were performed at week 24. Results of ANCOVA were summarized using least square (LS) means for each treatment group with corresponding standard error (SE), the between-treatment (2-24 week) difference in the least square means with corresponding 95% confidence interval, and the between-treatment p-value corresponds to the SAS Type III sum of squares.

[2] = cited from earlier work

CC12CC3CC(C)(C1)CC(N)(C3)C2 [Memantine, 1-amino-3,5-dimethyladamantane]
ADAS-cog Non-Responder, number of patients ([1]; LOCF analysis): 158/148 | ADAS-cog Responder (change from baseline <= -4), number of patients ([1]; LOCF analysis): 40/47 | ADAS-cog Difference (memantine minus placebo, LS mean) ([1]; LOCF analysis, p=0.003): −1.9 | ADAS-cog Non-Responder, number of patients ([1]; OC analysis): 129/126 | ADAS-cog Responder (change from baseline <= -4), number of patients ([1]; OC analysis): 33/34 | ADAS-cog Difference (memantine minus placebo, LS mean) ([1]; OC analysis, p=0.130): −1.1 | ADAS-cog LS mean change ([1]; week 8, LOCF, placebo 0.2, p 0.003): −1.2 | ADAS-cog LS mean change ([1]; week 8, OC, placebo 0.2, p=0.006): −1.1 | ADAS-cog LS mean change ([1]; week 12, LOCF, placebo -0.1, p=0.009): −1.4 | solubility in aqueous media [2]: highly soluble
